Tests used:
Format in all cases: in vivo
[1] = test system: Amaranthus retroflexus (AMARE); assay: Post-emergence herbicidal efficacy at 320 g/ha, greenhouse pot test; conditions: visual rating vs untreated control after about 3 weeks
Description: (§1) Seeds of mono- and dicotyledonous weed plants were placed in plastic pots in sandy loam soil (doubly sown with in each case one species of mono- or dicotyledonous weed plants per pot), covered with soil and cultivated in a greenhouse under controlled growth conditions. 2 to 3 weeks after sowing, the test plants were treated at the one-leaf stage. The compounds of the invention, formulated in the form of wettable powders (WP) or as emulsion concentrates (EC), were applied onto the green parts of the plants as aqueous suspension or emulsion with addition of 0.5% additive at a water application rate of 600 liters per hectare (converted). After the test plants had been kept in the greenhouse under optimum growth conditions for about 3 weeks, the activity of the preparations was rated visually in comparison to untreated controls. For example, 100% activity=the plants have died, 0% activity=like control plants. Tables […] 11 below show the effects of selected compounds of the general formula (I) according to Table 1 on various harmful plants and an application rate corresponding to 320 g/ha, which were obtained by the experimental procedure mentioned above.

Poa annua (POAAN) [2] = assay: as above; conditions: visual rating vs untreated control after about 3 weeks
Description: as §1

Stellaria media (STEME) [3] = assay: as above; conditions: visual rating vs untreated control after about 3 weeks
Description: as §1

Veronica persica (VERPE) [4] = assay: as above; conditions: 320 g/ha, visual rating vs untreated control after about 3 weeks
Description: as §1

[5] = test system: Abutilon theophrasti (ABUTH); assay: Pre-emergence herbicide efficacy at 320 g/ha, greenhouse pot test; conditions: visual scoring vs untreated control after about 3 weeks
Text: (§2) Seeds of mono- and dicotyledonous weed plants were placed in plastic pots in sandy loam soil (doubly sown with in each case one species of mono- or dicotyledonous weed plants per pot) and covered with soil. The compounds of the invention, formulated in the form of wettable powders (WP) or as emulsion concentrates (EC), were then applied onto the surface of the covering soil as aqueous suspension or emulsion with addition of 0.5% additive at a water application rate of 600 liters per hectare (converted). After the treatment, the pots were placed in a greenhouse and kept under good growth conditions for the test plants. After about 3 weeks, the effect of the preparations was scored visually in comparison with untreated controls as percentages. For example, 100% activity=the plants have died, 0% activity=like control plants. Tables C1 to C12 below show the effects of selected compounds of the general formula (I) according to Table 1 on various harmful plants and an application rate corresponding to 320 g/ha, which were obtained by the experimental procedure mentioned above.

[6] = test system: Amaranthus retroflexus (AMARE); assay: as above; conditions: visual scoring vs untreated control after about 3 weeks
Text: as §2

Bassia scoparia (KCHSC) = assay: as above; conditions: dosage 1280 g/ha in Table C6, visual scoring after about 3 weeks
Text: as §2

[7] = test system: Echinochloa crus-galli (ECHCG); assay: as above; conditions: visual scoring vs untreated control after about 3 weeks
Text: as §2

[8] = test system: Matricaria inodora (MATIN); assay: as above; conditions: visual scoring vs untreated control after about 3 weeks
Text: as §2

Poa annua (POAAN) [9] = assay: as above; conditions: visual scoring vs untreated control after about 3 weeks
Text: as §2

Setaria viridis (SETVI) = assay: as above; conditions: visual scoring vs untreated control after about 3 weeks
Text: as §2

Stellaria media (STEME) [10] = assay: as above; conditions: visual scoring vs untreated control after about 3 weeks
Text: as §2

Veronica persica (VERPE) [11] = assay: as above; conditions: visual scoring vs untreated control after about 3 weeks
Text: as §2

[12] = test system: Abutilon theophrasti (ABUTH); assay: Post-emergence herbicidal efficacy at 320 g/ha, greenhouse pot test; conditions: visual rating vs untreated control after about 3 weeks
Description: as §1

Compound	Post-emergence efficacy against Amaranthus retroflexus (AMARE) [1]	Post-emergence efficacy against Poa annua (POAAN) (Poa annua (POAAN) [2])	Post-emergence action against Stellaria media (STEME) (Stellaria media (STEME) [3])	Post-emergence efficacy against Veronica persica (VERPE) (Veronica persica (VERPE) [4])	Pre-emergence efficacy against Abutilon theophrasti (ABUTH) [5]	Pre-emergence efficacy against Amaranthus retroflexus (AMARE) [6]	Pre-emergence efficacy against Bassia scoparia (KCHSC) (Bassia scoparia (KCHSC))	Pre-emergence efficacy against Echinochloa crus-galli (ECHCG) [7]	Pre-emergence efficacy against Matricaria inodora (MATIN) [8]	Pre-emergence efficacy against Poa annua (POAAN) (Poa annua (POAAN) [9])	Pre-emergence efficacy against Setaria viridis (SETVI) (Setaria viridis (SETVI))	Pre-emergence efficacy against Stellaria media (STEME) (Stellaria media (STEME) [10])	Pre-emergence efficacy against Veronica persica (VERPE) (Veronica persica (VERPE) [11])	Post-emergence efficacy against Abutilon theophrasti (ABUTH) [12]
Cc1cc(C)c(-c2cc(C3CC3)no2)c(Oc2ncc(Br)cn2)n1 [Example I-296]	90%	90%	100%	100%	100%	100%	100%	90%	100%	100%	100%	100%	90%	–
Cc1cc(C)c(-c2cc(C(F)F)no2)c(Oc2ncc(F)cc2C#N)n1 [Example I-289]	100%	90%	90%	90%	–	–	90%	–	–	–	–	90%	–	–
Cc1ccc(-c2cc(C(F)F)on2)c(Oc2ncc(F)cn2)n1 [Example I-13]	90%	–	–	–	–	–	–	–	–	–	–	–	–	–
Cc1cc(C)c(-c2cc(C(F)F)no2)c(Oc2ncc(C#N)cn2)n1 [Example I-46]	100%	90%	100%	100%	90%	90%	90%	–	100%	–	–	90%	–	–
Cc1cc(C)c(-n2cc(Br)cn2)c(Oc2ncc(Cl)cn2)n1 [Example I-278]	100%	–	90%	90%	100%	–	100%	100%	–	–	–	100%	100%	–
Cc1cc(C)c(-c2cc(CC3CC3)no2)c(Oc2ncc(Cl)cc2F)n1 [Example I-202]	–	100%	90%	–	–	90%	–	–	–	–	–	100%	–	–
Cc1cc(C)c(-c2cc(C3(C)CC3)no2)c(Oc2ncc(Cl)cc2F)n1 [Example I-301]	–	–	90%	90%	–	–	–	–	–	–	–	–	–	–
Cc1cc(C)c(-c2cc(C(F)F)no2)c(Oc2ncc(Cl)cc2C#N)n1 [Example I-290]	100%	–	–	90%	–	–	–	–	–	–	–	–	–	–
Cc1ccc(-c2cc(C(F)F)on2)c(Oc2ncc(Cl)cn2)n1 [Example I-12]	–	–	–	–	90%	100%	–	–	–	100%	–	90%	–	–
Cc1cc(C)c(-c2cc(CC3CC3)no2)c(Oc2ncc(F)cn2)n1 [Example I-200]	90%	–	90%	90%	90%	100%	–	90%	90%	90%	–	100%	–	–
Cc1cc(C)c(-c2cc(C3CC3)no2)c(Oc2ncc(Cl)cc2F)n1 [Example I-180]	–	–	100%	90%	–	100%	–	–	100%	100%	–	100%	–	–
Cc1cc(C)c(-c2cc(C(F)F)no2)c(Oc2ncc(Br)cc2C#N)n1 [Example I-291]	90%	–	–	90%	–	–	90%	–	–	–	–	–	–	–
Cc1cc(C)c(-n2cccn2)c(Oc2ncc(F)cn2)n1 [Example I-244]	–	–	–	–	–	–	90%	–	–	–	–	–	90%	–
Cc1cc(C)c(-c2cc(C3(C)CC3)no2)c(Oc2ncc(Cl)cn2)n1 [Example I-297]	–	–	–	90%	90%	90%	–	–	100%	–	–	100%	–	–
Cc1cc(C)c(-c2cc(CC3CC3)no2)c(Oc2ncc(Br)cn2)n1 [Example I-300]	–	–	90%	–	–	–	–	–	–	–	–	90%	–	–
Cc1cc(C)c(-n2cccn2)c(Oc2ncc(Cl)cn2)n1 [Example I-245]	–	–	–	–	90%	100%	100%	–	90%	–	–	100%	–	–
Cc1cc(C)c(-c2cc(C(F)F)no2)c(Oc2ncc(Cl)cc2Cl)n1 [Example I-288]	100%	90%	90%	90%	–	–	90%	–	–	90%	–	90%	–	–
Cc1cc(C)c(-c2cc(C3(C)CC3)no2)c(Oc2ncc(Br)cn2)n1 [Example I-298]	–	–	90%	90%	–	90%	–	–	90%	–	–	100%	–	90%

From patent US20230303549A1, “SUBSTITUTED HETEROARYLOXYPYRIDINES, THE SALTS THEREOF AND THEIR USE AS HERBICIDAL AGENTS” (Bayer Aktiengesellschaft, priority 2020, published 2023)
